Reference: patent US20230141603A1, “BENZODIAZEPINE DERIVATIVES AS GABA A GAMMA1 PAM” (Hoffmann-La Roche Inc., priority 2021, published 2023)

Target: T1, h-GABAA α2β2γ1 (Homo sapiens, UniProt P47869+Q8N1C3)
T1 sequence (P47869 29-451): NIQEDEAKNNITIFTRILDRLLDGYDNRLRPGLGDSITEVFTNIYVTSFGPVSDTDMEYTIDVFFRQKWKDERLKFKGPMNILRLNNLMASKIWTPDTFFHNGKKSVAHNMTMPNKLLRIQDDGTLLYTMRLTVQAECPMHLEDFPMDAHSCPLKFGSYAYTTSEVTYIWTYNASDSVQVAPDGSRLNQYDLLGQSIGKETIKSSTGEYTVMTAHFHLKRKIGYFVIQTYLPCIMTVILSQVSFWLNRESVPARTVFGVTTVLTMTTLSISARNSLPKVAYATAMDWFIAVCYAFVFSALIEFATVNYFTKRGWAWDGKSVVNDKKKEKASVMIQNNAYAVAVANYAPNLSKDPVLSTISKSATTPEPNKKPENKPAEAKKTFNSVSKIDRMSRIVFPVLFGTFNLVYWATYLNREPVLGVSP
T1 sequence (P47870 25-512 partner limits assumed): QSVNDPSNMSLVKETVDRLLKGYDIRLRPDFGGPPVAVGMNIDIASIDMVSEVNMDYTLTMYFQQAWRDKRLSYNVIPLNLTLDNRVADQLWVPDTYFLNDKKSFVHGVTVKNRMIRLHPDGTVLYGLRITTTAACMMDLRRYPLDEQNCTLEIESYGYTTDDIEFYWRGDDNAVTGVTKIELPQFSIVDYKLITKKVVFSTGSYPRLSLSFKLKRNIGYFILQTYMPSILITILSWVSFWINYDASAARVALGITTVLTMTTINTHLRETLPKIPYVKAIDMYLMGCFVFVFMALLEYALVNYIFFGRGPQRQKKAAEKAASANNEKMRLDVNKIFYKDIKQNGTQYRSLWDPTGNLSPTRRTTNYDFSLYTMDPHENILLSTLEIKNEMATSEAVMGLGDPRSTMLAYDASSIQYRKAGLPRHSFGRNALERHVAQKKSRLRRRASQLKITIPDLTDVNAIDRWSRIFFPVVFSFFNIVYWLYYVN
T1 sequence (Q8N1C3 36-465): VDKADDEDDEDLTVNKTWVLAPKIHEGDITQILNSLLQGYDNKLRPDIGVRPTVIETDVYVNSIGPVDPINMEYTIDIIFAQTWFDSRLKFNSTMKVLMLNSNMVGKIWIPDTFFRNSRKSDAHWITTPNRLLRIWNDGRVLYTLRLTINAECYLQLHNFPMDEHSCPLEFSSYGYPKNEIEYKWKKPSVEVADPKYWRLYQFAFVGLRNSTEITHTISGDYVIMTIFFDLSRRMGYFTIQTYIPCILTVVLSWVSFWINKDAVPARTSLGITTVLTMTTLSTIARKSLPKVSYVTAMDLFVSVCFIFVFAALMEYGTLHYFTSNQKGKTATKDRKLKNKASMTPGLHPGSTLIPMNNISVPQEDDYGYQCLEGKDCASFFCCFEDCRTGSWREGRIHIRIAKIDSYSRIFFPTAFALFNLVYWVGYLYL
Assay: Two-electrode voltage clamp electrophysiology in Xenopus oocytes, modulation of GABA EC20 current
Type: cell-based
Design: host or cells: Xenopus laevis oocytes, RNA micro-injection
Settings: Table 2; for Efficacy (GABA)%: % modulation of GABA EC20 = 100*(Fold increase−1), compound at approx. 30-fold Ki; for Fold increase h-GABA-A α2β2γ1 oocyte @ 30-fold Ki: compound at approx. 30-fold its Ki α2β2γ1, GABA EC20, Xenopus oocytes
In short: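 Oocytes injected with receptor subunit mRNA were recorded 3–5 days later by two-electrode voltage clamp at −80 mV, room temperature, pH 7.4. Compound was applied during a second GABA EC20 pulse, with at least 3 oocytes per concentration. Efficacy is the ratio-trace extremum, expressed as % modulation of GABA EC20.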

SMILES	Efficacy (GABA)%	Fold increase h-GABA-A α2β2γ1 oocyte @ 30-fold Ki
Fc1cccnc1C1=NCc2nnc(C3CC3)n2-c2ccc(Cl)c(Cl)c21 [Example 65, 7,8-dichloro-1-cyclopropyl-6-(3-fluoro-2-pyridyl)-4H-[1,2,4]triazolo[4,3-a][1,4]benzodiazepine]	114%	2.14
COc1ccc2c(c1Cl)C(c1c(F)cccc1F)=NCc1nnc(-c3cccnc3)n1-2 [Example 62, 7-chloro-6-(2,6-difluorophenyl)-8-methoxy-1-(3-pyridyl)-4H-[1,2,4]triazolo[4,3-a][1,4]benzodiazepine]	63%	1.63
Fc1cccc(F)c1C1=NCc2nnc(-c3cccnn3)n2-c2ccc(C(F)(F)F)c(Cl)c21 [Example 38, 7-chloro-6-(2,6-difluorophenyl)-1-pyridazin-3-yl-8-(trifluoromethyl)-4H-[1,2,4]triazolo[4,3-a][1,4]benzodiazepine]	114%	2.14
Cc1nnc2n1-c1ccc(Cl)c(Cl)c1C(c1c(F)cccc1F)=NC2 [Example 5, 7,8-dichloro-6-(2,6-difluorophenyl)-1-methyl-4H-[1,2,4]triazolo[4,3-a][1,4]benzodiazepine]	57%	1.57
CC(F)(F)c1ccc2c(c1Cl)C(c1c(F)cccc1F)=NCc1nncn1-2 [Example 21, 7-chloro-8-(1,1-difluoroethyl)-6-(2,6-difluorophenyl)-4H-[1,2,4]triazolo[4,3-a][1,4]benzodiazepine]	100%	2.00
Cc1nnc2n1-c1ccc(Br)c(Cl)c1C(c1c(F)cccc1Cl)=NC2 [Example 50, 8-bromo-7-chloro-6-(2-chloro-6-fluoro-phenyl)-1-methyl-4H-[1,2,4]triazolo[4,3-a][1,4]benzodiazepine]	54%	1.54
Cn1cc(-c2nnc3n2-c2ccc(Cl)c(Cl)c2C(c2ncccc2F)=NC3)cn1 [Example 58, 7,8-dichloro-6-(3-fluoro-2-pyridyl)-1-(1-methylpyrazol-4-yl)-4H-[1,2,4]triazolo[4,3-a][1,4]benzodiazepine]	67%	1.67
O=c1[nH]nc2n1-c1ccc(Br)c(Cl)c1C(c1ccccc1F)=NC2 [Example 26, 8-bromo-7-chloro-6-(2-fluorophenyl)-2,4-dihydro-[1,2,4]triazolo[4,3-a][1,4]benzodiazepin-1-one]	45%	1.45
Fc1cccnc1C1=NCc2nnc(-c3cccnn3)n2-c2ccc(Br)c(Cl)c21 [Example 45, 8-bromo-7-chloro-6-(3-fluoro-2-pyridyl)-1-pyridazin-3-yl-4H-[1,2,4]triazolo[4,3-a][1,4]benzodiazepine]	828%	9.28
Fc1cccnc1C1=NCc2nncn2-c2ccc(Br)c(Cl)c21 [Example 29, 8-bromo-7-chloro-6-(3-fluoro-2-pyridyl)-4H-[1,2,4]triazolo[4,3-a][1,4]benzodiazepine]	105%	2.05
Cc1ccc2c(c1Cl)C(c1c(F)cccc1F)=NCc1n[nH]c(=O)n1-2 [Example 16, 7-chloro-6-(2,6-difluorophenyl)-8-methyl-2,4-dihydro-[1,2,4]triazolo[4,3-a][1,4]benzodiazepin-1-one]	68%	1.68
CO[C@H]1C[C@H](c2nnc3n2-c2ccc(Cl)c(Cl)c2C(c2c(F)cccc2F)=NC3)C1 [Example 91, trans-7,8-dichloro-6-(2,6-difluorophenyl)-1-(3-methoxycyclobutyl)-4H-[1,2,4]triazolo[4,3-a][1,4]benzodiazepine]	58%	1.58
COc1ccc2c(c1Cl)C(c1c(F)cccc1F)=NCc1nnc(-c3cccnn3)n1-2 [Example 57, 7-chloro-6-(2,6-difluorophenyl)-8-methoxy-1-pyridazin-3-yl-4H-[1,2,4]triazolo[4,3-a][1,4]benzodiazepine]	149%	2.49
Fc1cccc(F)c1C1=NCc2nnc(-c3ccncn3)n2-c2ccc(Br)c(Br)c21 [Example 43, 7,8-dibromo-6-(2,6-difluorophenyl)-1-pyrimidin-4-yl-4H-[1,2,4]triazolo[4,3-a][1,4]benzodiazepine]	23%	1.23
O=c1[nH]nc2n1-c1ccc(Cl)c(Cl)c1C(c1c(F)cccc1F)=NC2 [Example 9, 7,8-dichloro-6-(2,6-difluorophenyl)-2,4-dihydro-[1,2,4]triazolo[4,3-a][1,4]benzodiazepin-1-one]	72%	1.72
Fc1ccccc1C1=NCc2nnc(-c3cccnn3)n2-c2ccc(Br)c(Cl)c21 [Example 3, 8-bromo-7-chloro-6-(2-fluorophenyl)-1-pyridazin-3-yl-4H-[1,2,4]triazolo[4,3-a][1,4]benzodiazepine]	113%	2.13
Cc1nnc2n1-c1ccc(C3CC3)c(Cl)c1C(c1c(F)cccc1F)=NC2 [Example 6, 7-chloro-8-cyclopropyl-6-(2,6-difluorophenyl)-1-methyl-4H-[1,2,4]triazolo[4,3-a][1,4]benzodiazepine]	106%	2.06
Fc1cccc(F)c1C1=NCc2nnc(-c3cccnn3)n2-c2ccc(Br)c(Cl)c21 [Example 104, 8-bromo-7-chloro-6-(2,6-difluorophenyl)-1-pyridazin-3-yl-4H-[1,2,4]triazolo[4,3-a][1,4]benzodiazepine]	94%	1.94
Fc1ccccc1C1=NCc2nnc(-c3ccncn3)n2-c2ccc(Cl)c(Cl)c21 [Example 18, 7,8-dichloro-6-(2-fluorophenyl)-1-pyrimidin-4-yl-4H-[1,2,4]triazolo[4,3-a][1,4]benzodiazepine]	70%	1.70
O=c1[nH]nc2n1-c1ccc(Cl)c(Cl)c1C(c1ncccc1F)=NC2 [Example 59, 7,8-dichloro-6-(3-fluoro-2-pyridyl)-2,4-dihydro-[1,2,4]triazolo[4,3-a][1,4]benzodiazepin-1-one]	115%	2.15
Cc1ccc2c(c1Cl)C(c1c(F)cccc1F)=NCc1nnc(-c3cccnn3)n1-2 [Example 48, 7-chloro-6-(2,6-difluorophenyl)-8-methyl-1-pyridazin-3-yl-4H-[1,2,4]triazolo[4,3-a][1,4]benzodiazepine]	101%	2.01
